Results as given in patent publication EP0456204A2, “Use of benzocycloheptathiophenecarboxylic acid derivatives in the treatment of eosinophile accumulation/activation and connected diseases” (SANDOZ LTD., priority 1990, dated 1991).

Key:
[1] = test system: pneumoconiosis or severe bronchitis; assay: Clinical trial 2: utility in pneumoconiosis/bronchitis; format: in vivo, subjects (human); conditions: daily oral dosage as under 1.2, in excess of 2 months; for need for concomitant medication: frequent alternative medication at trial entry
Experimental: (§1) Suitable individual oral dosages, e.g. for COMPOUNDS D2 and K1 in substantially pure form, in such clinical trials comprise, e.g. from ca. 10 to 800mg, e.g. from ca. 50 to 250mg/day, for example at dosages of ca. 25, 50, 200 or 400mg/day orally administered 1x or in divided doses 2 to 3x daily, for example in encapsulated form as hereinafter described in EXAMPLE F. Both acute (0 to 1 hour) and long-term (up to 12 hour) change in lung function is determined post-medication by measurement of lung function parameters, e.g. as follows: • a) FVC; FEV 0.5; FEV 1.0; FEV 3.0; • b) FEV 0.5/FVC; FEV 1/FVC; FEV 3/FVC; • c) PEF; FEF 25-75%; FEF 75-85%; FEF 25%; FEF 50%; FEF 75%; FEF 0.2-1.2 • d) Flow expiratory curve and flow inspiratory curve. Tolerance of medication and possible occurrence of side effects are also reported. In addition to monitoring of lung function, blood eosinophil levels are also monitored and the incidence of activated eosinophils and eosinophil secretory proteins determined. In individual studies, subjects are also subjected to lung lavage and the presence of eosinophils and platelets and their respective secretory products determined before and after exposure to allergen. […] Initial dosaging for e.g. COMPOUND D2 or COMPOUND K1 in substantially pure form is of the order of from 10 to 800mg, e.g. from ca. 50 to 250mg/day, for example at dosages of ca. 25, 50, 200 or 400mg/day administered, e.g. orally once or in divided dosages 2 to 3x daily with subsequent reduction in appropriate cases to a maintenance dosage of 10 to 400mg/day orally. (Suitable dosage forms are e.g. as hereinafter described in EXAMPLE F). During the course of the trial subjects are monitored continually and all relevant parameters recorded including lung function, alterations in the incidence of activated eosinophils or the release of eosinophil products into the blood or bronchial fluids and, in particular, frequency and severity of asthma exacerbation or attack. Additional bronchodilator therapy is provided on the occasion of any such attack. […] UTILITY IN PNEUMOCONIOSIS/BRONCHITIS The trial is performed analogously to 1.2 above but with groups of subjects having a history of pneumoconiosis or severe bronchitis, e.g. characterised by events of restricted lung function, for example including difficulty in breathing, wheezing, dyspnea or occasional bronchoconstrictor attack and a record of pneumoconiosis- or bronchitis-related work absenteeism. […] COMPOUND D2 or COMPOUND K1 each in substantially pure form is administered daily at oral dosage rates as set forth under 1.2 above, over periods in excess of 2, preferably in excess of 3, months. During the course of the trial, subjects are monitored continually and all relevant parameters are recorded, including basal lung function, frequency of attack with impairment of lung function, requirement for other medication and frequency of absenteeism attributable to disease status. […] In cases where frequent use of alternative medication is recorded at trial entry, reduced need for concomitant medication is also observed as the trial progresses. Similar results are obtainable employing other COMPOUNDS OF THE INVENTION at the same or equivalent dosage rates. • 3. […] COMPOUND D2 or COMPOUND K1 in substantially pure form is administered orally at a daily dosage rate of from 10 to 400mg, e.g. from cam. 50 to 250mg/day, for example at dosages of ca. 25, 50 or 200mg, e.g. in dosage form as hereinafter described in EXAMPLE F. The trial is continued for a period of up to 2 to 3 months. Blood samples are collected regularly during the course of the trial and assayed for blood-eosinophil count, incidence of activated eosinophils and levels of eosinophil secretory proteins. […] Recorded symptomatology attributable to condition is also found to undergo reversal during treatment. Similar results are obtainable employing other COMPOUNDS OF THE INVENTION at the same or equivalent dosage rates.

beagle dogs = assay: 26-week oral tolerability in beagle dogs; format: in vivo; conditions: up to 200 mg/kg/day P.O for 26 weeks
[2] = test system: asthma exacerbation or attack; assay: Clinical trial 1.2: long-term prophylactic efficacy in asthmatic subjects; format: in vivo, asthmatic subjects (human); conditions: 10 to 800mg/day orally; for frequency of asthma exacerbation or attack: at least 2 up to 6 months and more, compared with alternative, non-prophylactic therapy; for need for concomitant (bronchodilator) therapy: at least 2 up to 6 months, subjects initially dependent on methyl-xanthine or β₂-agonist therapy
Experimental: (§2) Suitable individual oral dosages, e.g. for COMPOUNDS D2 and K1 in substantially pure form, in such clinical trials comprise, e.g. from ca. 10 to 800mg, e.g. from ca. 50 to 250mg/day, for example at dosages of ca. 25, 50, 200 or 400mg/day orally administered 1x or in divided doses 2 to 3x daily, for example in encapsulated form as hereinafter described in EXAMPLE F. Both acute (0 to 1 hour) and long-term (up to 12 hour) change in lung function is determined post-medication by measurement of lung function parameters, e.g. as follows: • a) FVC; FEV 0.5; FEV 1.0; FEV 3.0; • b) FEV 0.5/FVC; FEV 1/FVC; FEV 3/FVC; • c) PEF; FEF 25-75%; FEF 75-85%; FEF 25%; FEF 50%; FEF 75%; FEF 0.2-1.2 • d) Flow expiratory curve and flow inspiratory curve. Tolerance of medication and possible occurrence of side effects are also reported. In addition to monitoring of lung function, blood eosinophil levels are also monitored and the incidence of activated eosinophils and eosinophil secretory proteins determined. In individual studies, subjects are also subjected to lung lavage and the presence of eosinophils and platelets and their respective secretory products determined before and after exposure to allergen. […] Initial dosaging for e.g. COMPOUND D2 or COMPOUND K1 in substantially pure form is of the order of from 10 to 800mg, e.g. from ca. 50 to 250mg/day, for example at dosages of ca. 25, 50, 200 or 400mg/day administered, e.g. orally once or in divided dosages 2 to 3x daily with subsequent reduction in appropriate cases to a maintenance dosage of 10 to 400mg/day orally. (Suitable dosage forms are e.g. as hereinafter described in EXAMPLE F). During the course of the trial subjects are monitored continually and all relevant parameters recorded including lung function, alterations in the incidence of activated eosinophils or the release of eosinophil products into the blood or bronchial fluids and, in particular, frequency and severity of asthma exacerbation or attack. Additional bronchodilator therapy is provided on the occasion of any such attack. […] During the course of the trial, subjects are monitored continually and all relevant parameters are recorded, including basal lung function, frequency of attack with impairment of lung function, requirement for other medication and frequency of absenteeism attributable to disease status. […] In cases where frequent use of alternative medication is recorded at trial entry, reduced need for concomitant medication is also observed as the trial progresses. […] Recorded symptomatology attributable to condition is also found to undergo reversal during treatment. […]

[3] = test system: elevated eosinophil presence in the blood; assay: Clinical trial 3: utility in hypereosinophilia and eosinophil-related disorders; format: in vivo, subjects (human); conditions: orally 10 to 400mg daily, up to 2 to 3 months
Experimental: as §1

[4] = Tolerability in clinical trials; format: in vivo, human; conditions: oral dosage rates of 50, 200 and 400mg/day
[5] = test system: eosinophil accumulation in the airway lumen; assay: Suppression of eosinophil accumulation in allergen (ovalbumin) treated, sensitised animals; airway lavage cell counts; format: in vivo, Guinea-pigs (Dunkin-Hartley, male); conditions: for airway eosinophil accumulation compared with untreated controls: 10.0 - 100mg/kg/day as a solution orally for 6 consecutive days prior to challenge, 1 hour prior and seven hours after challenge, lavage 24 hours after challenge
[6] = Acute toxicity (LD50) in rats; conditions: rat, in vivo, read-out: LD₅₀
Experimental: (§3) Thus established LD₅₀ values for the COMPOUND D2 in substantially pure form in mice and rats after 14 days p.o. and 7 days i.v. are: in mice, p.o […], i.v. 163 mg/kg; in rats, p.o. 1721 mg/kg, i.v. 50 mg/kg.

[7] = test system: allergic, atopic bronchoconstrictor response; assay: Clinical trial 1.1: prophylactic efficacy before allergen challenge in obstructive inflammatory airways disease, e.g. asthma; format: in vivo, subjects (human); conditions: oral ca. 10 to 800mg/day, 1 to 2 hours or 1 to 7 days prior to allergen challenge; compared with placebo
Experimental: as §2

[8] = test system: allergen induced eosinophilia; assay: Influence on allergen induced eosinophilia following inhalation of test compound; bronchoalveolar lavage 24 hrs after challenge; format: in vivo, Male guinea-pigs (Dunkin-Hartley); conditions: inhalation immediately before challenge, 10.0 to 100mg/kg; lavage 24 hrs following challenge
Experimental: EXAMPLE B: INFLUENCE ON ALLERGEN INDUCED EOSINOPHILIA IN THE GUINEA-PIG FOLLOWING INHALATION
Male guinea-pigs (Dunkin-Hartley) of ca. 300-400g are sensitized employing 10µg amounts of ovalbumin (3x) and applying the technique described in Sanjar et al., Br. J. Pharmacol., 99, 679-686 (1990).
Immediately before challenge COMPOUND OF THE INVENTION, for example COMPOUND D2 or COMPOUND K1 each in substantially pure form, is administered to sensitized animals by inhalation. Administration is effected via a nose-cone either in dry powder with delivery from a brush feed micronising jet mill powder aerosol generator, as described in Bernstein et al. "Aerosols: Science, Technology and Industrial Application of Airborne Particles", Extended Abstract, eds. B.Y.H. Liu. et. al., Elsevier Science, New York, 1984 or in solution from a nebulizer. Antigen challenge or exposure is then carried out, again in accordance with the methods described by Sanjar et. al. loc cit. at p. 680 column 1, employing 10µg ovalbumin in 0.01% solution. Broncheolar lavage is performed 24 hrs following challenge, as follows: • 1. Airway lavage Guinea-pigs are killed by an intraperitoneal injection of pentobarbitone 100mg/kg). The trachea is exposed and cannulated. 10ml of Hank's balanced solution is introduced into the lungs and immediately aspirated by gentle compression of the lung tissue. This procedure is repeated five times. Aspiration fluid is pooled at room temperature in Falcon plastic tubes (60ml). Fluid recovered from the six washes normally exceeds 50ml (85%). The cell suspension is centrifuged (200g for 10 minutes); the supernatant is discarded and the cell pellet resuspended in 1ml of Hank's balanced solution. • 2. Total cell counts 10µl of the 1ml cell suspension is added to 190µl or 90µl (when cell count is low) of Turk's stain (Merck, Darmstadt, Germany) and total cell numbers are determined in a Neubauer (brightline) hemocytometer. The incidence of cells in the 1ml suspension is calculated by multiplying the total cells enumerated in a square of 1mm² by the original dilution viz.: No. of cells counted x dilution x […] = no. of cells/ml. • 3. Differential cell counts The cell suspension is diluted in Hank's balanced solution to obtain a cell concentration of 10⁶ cells per ml. 50µl of this cell suspension is placed in the cytospin (Cytospin 2, Shandon Co.) tube and overlaid by 200µl of buffer. The cytospin is used at 600rpm for 8 minutes. Results for groups of animals receiving COMPOUNDS OF THE INVENTION at varying doses are compared with results for control challenged animals receiving no test substance.

[9] = Acute toxicity (LD50) in mice; conditions: mouse, in vivo, read-out: LD₅₀
Experimental: as §3

beagle dog = assay: Pilot toxicological studies in the beagle dog; format: in vivo; conditions: 150 and 200 mg/kg p.o. in gelatin capsules over 5 weeks and in olive oil from week 6 to week 8 on

| SMILES | basal lung function [1] | frequency of attack and absenteeism [1] | need for concomitant medication [1] | frequency of asthma exacerbation or attack [2] | need for concomitant (bronchodilator) therapy [2] | blood-eosinophil count [3] | incidence of activated eosinophils and eosinophil secretory protein levels [3] | recorded symptomatology attributable to condition [3] | airway eosinophil accumulation compared with untreated controls [5] | eosinophilic response [7] | lung function parameters [7] | eosinophil counts as compared with control groups [8] | neutrophil counts as compared with control groups [8] | total cell counts as compared with control groups [8] | other results |
| --- | --- | --- | --- | --- | --- | --- | --- | --- | --- | --- | --- | --- | --- | --- | --- |
| COC1=Cc2ccccc2C(=CC(=O)O)c2ccsc21 [COMPOUND D2, [10-Methoxy-4H-benzo[4,5]cyclohepta[1,2-b]thiophen-4-ylidene]-acetic acid] | overall improvement | reduced frequency | reduced need | marked reduction | increasingly reduced need | decreased blood-eosinophil count | decreased incidence | reversal | significant reduction | reduction of eosinophilic response | marked improvement | clear reduction | clear reduction | clear reduction | tolerability (beagle dogs): generally well tolerated; tolerability / side effects [4]: well tolerated with no significant side effect occurrance; activity in the subject test model (airway eosinophil accumulation) ([5]; dosages of 10 and 50mg/kg/day s.c.): significant activity; LD50 at 168 h ([6]; iv, after 7 days): 50 mg/kg; LD50 at 336 h ([6]; po, after 14 days): 1720 mg/kg; LD50 at 168 h ([9]; iv, after 7 days): 163 mg/kg; LD50 at 336 h ([9]; po, after 14 days): 1620 mg/kg |
| COC1=Cc2ccccc2C(=CC(=O)O)c2cc(Cl)sc21 [COMPOUND K1, [2-Chloro-10-methoxy-4H-benzo[4,5]cyclohepta[1,2-b]thiophen-4-ylidene]-acetic acid] | overall improvement | reduced frequency | reduced need | – | – | decreased blood-eosinophil count | decreased incidence | reversal | significant reduction | – | – | clear reduction | clear reduction | clear reduction | pathological effects (beagle dog): no pathological effects |
| COC1=Cc2ccccc2C(=CC(=O)O)c2cc(Cl)sc21 [COMPOUND K2, [2-Chloro-10-methoxy-4H-benzo[4,5]cyclohepta[1,2-b]thiophen-4-ylidene]-acetic acid] | – | – | – | marked reduction | increasingly reduced need | – | – | – | – | reduction of eosinophilic response | marked improvement | – | – | – | – |
